Measured values published in US20050222275A1 (priority 2001, published 2005).
Where two headings read alike, the source gives them in different places.

Experiments:
Aβ peptide = target: T1, Aβ peptide (Homo sapiens, UniProt P05067); details: cited from earlier work
T1 construct: Aβ peptide intermediate with a high β-sheet content

[1] = in vivo, po; cited from earlier work
[2] = system: scrapie-infected neuroblastoma cells (ScN2a); details: cited from earlier work
[3] = system: Scrapie (IC) infected Hamsters; type: in vivo, Syrian hamsters; details: for Incubation period: IC scrapie-infected hamsters, 7.5% (w/v) DMSO in drinking water, median; for Percentage of infectivity (%): relative to control
[4] = in vivo; cited from earlier work
PrP^Sc [5] = target: PrP^Sc (Mesocricetus auratus, UniProt P04273); type: in vivo, hamster; details: IC-inoculated, DMSO 14-end group, brain homogenate
CJD patients = details: human, in vivo
amyloidotic diseases = details: human, in vivo; cited from earlier work
[6] = system: Scrapie (IP) infected Hamsters; details: for Incubation period: IP scrapie-infected hamsters, 7.5% (w/v) DMSO in drinking water
PrP^Sc [7] = details: human, in vivo
caseic amyloidosis = details: mouse, in vivo, po; cited from earlier work
amyloid fibrils = details: cited from earlier work

Chain of PrP^Sc (Mesocricetus auratus, UniProt P04273) (P04273 23-231 limits assumed): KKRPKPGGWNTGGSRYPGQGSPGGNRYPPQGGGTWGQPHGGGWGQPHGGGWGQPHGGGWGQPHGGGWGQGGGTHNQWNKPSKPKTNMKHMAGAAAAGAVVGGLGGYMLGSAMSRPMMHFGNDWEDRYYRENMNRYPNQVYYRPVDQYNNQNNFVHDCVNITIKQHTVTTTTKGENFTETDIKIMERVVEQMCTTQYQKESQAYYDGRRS
T1 sequence (P05067 672-711 limits assumed): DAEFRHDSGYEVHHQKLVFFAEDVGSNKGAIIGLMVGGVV

For `C[S+](C)[O-]` [DMSO, dimethyl sulfoxide], the “formation of Aβ peptide intermediate with a high β-sheet content” value (Aβ peptide) is given as “block the formation”, the “time to peak concentration” value [1] is given as 4 h and the “formation of PrP^Sc from newly synthesized PrP^C” value [2] is given as “interfered with the formation of PrP^Sc”. For the same compound, the “Incubation period” value ([3]; 0-14 dpi) was 85 days, the “Incubation period” value ([3]; 0-end dpi) was 101 days and the “Incubation period” value ([3]; 14-end dpi) was 107 days. The “Incubation period” value ([3]; 55-end dpi) was 91 days, the “effect on incubation time compared with control group” value ([3]; IC, 0-14 group) was “significant deleterious effect” and the “Infectivity (Log I.D 50)” value ([3]; IC, DMSO treatment 0-14 dpi) was 7.1 Log I.D 50. The “Variance from control group [P < 0.05]” value ([3]; IC, DMSO treatment 0-14 dpi) was “+ ([+] means statistically significant difference [p < 0.05])”, the “Percentage of infectivity (%)” value ([3]; IC, DMSO treatment 0-14 dpi) was 1258% and the “Infectivity (Log I.D 50)” value ([3]; IC, DMSO treatment 0-end dpi) was 4.9 Log I.D 50. For the same compound, the “Variance from control group [P < 0.05]” value ([3]; IC, DMSO treatment 0-end dpi) was “+ ([+] means statistically significant difference [p < 0.05])”, the “Percentage of infectivity (%)” value ([3]; IC, DMSO treatment 0-end dpi) was 3.16% and the “Infectivity (Log I.D 50)” value ([3]; IC, DMSO treatment 14-end dpi) was 4.5 Log I.D 50. For the same compound, the “Variance from control group [P < 0.05]” value ([3]; IC, DMSO treatment 14-end dpi) was “+ ([+] means statistically significant difference [p < 0.05])”, the “Percentage of infectivity (%)” value ([3]; IC, DMSO treatment 14-end dpi) was 3.16% and the “Infectivity (Log I.D 50)” value ([3]; IC, DMSO treatment 55-end dpi) was 6.4 Log I.D 50. For the same compound, the “difference from control group in incubation time” value ([3]; IC, DMSO-treated from 55 dpi-end) was “no statistically significant difference”, the “incubation time for the disease compared with control group” value ([3]; IC, treatment plans 0-end or 14-end) was “statistically significant increase” and the side effects [4] was “no serious side effects”. The “PrP^Sc in sample from untreated animal relative to DMSO-treated animal (band intensity)” value (PrP^Sc [5]; 90 dpi) was “about 10 times”, the “PrP in DMSO-treated animals at 90-110 dpi compared with untreated animals at 60 dpi” value (PrP^Sc [5]) was “equivalent” and the “PrP^Sc in DMSO-treated animals at 110 dpi compared with untreated animals at 90 dpi (final stages)” value (PrP^Sc [5]) was “equivalent amounts”. The “cerebellar syndrome during the treatment” value (CJD patients) was “progressed”, the “cognitive decline during the treatment” value (CJD patients) was “no further cognitive decline” and the “deterioration, medical evaluation” value (CJD patients) was “slower than expected”. The “titubation and tremor, medical evaluation” value (CJD patients) was “improvement”, the “patients showing clinical improvement” value (amyloidotic diseases) was “about 50%” and the “urine of patients after DMSO” value (amyloidotic diseases) was “contains material that can form fibrils”. The “Incubation period” value ([6]; 0 - end dpi) was 127.6 days, the “Incubation period” value ([6]; 28 - end dpi) was 126.6 days and the “Incubation period” value ([6]; 55 - end dpi) was 136.8 days. For the same compound, the “Variance from control group [P < 0.05]” value ([6]; IP, DMSO treatment 0 - end dpi) was “+ ([+] means statistically significant difference [p < 0.05])”, the “Variance from control group [P < 0.05]” value ([6]; IP, DMSO treatment 28 - end dpi) was “+ ([+] means statistically significant difference [p < 0.05])” and the “Variance from control group [P < 0.05]” value ([6]; IP, DMSO treatment 55 - end dpi) was “+ ([+] means statistically significant difference [p < 0.05])”. For the same compound, the “overall effect for the animals treated with DMSO” value ([6]; IP, all treatment plans of Table 2) was “overall beneficial effect”, the “beneficial effect on longevity” value ([6]; IP, groups 0-end and 28-end) was “marginal” and the longevity ([6]; IP, treated only from 55 dpi onwards) was “most remarkable longevity”. For the same compound, the “adverse DMSO effects” value ([6]; hamsters, DMSO in drinking water) was “weight loss”, the “secreted PrP^Sc in the urine” value (PrP^Sc [7]) was “continuously increasing amounts” and the “development of the disease” value (caseic amyloidosis) was “prevented the development of the disease”. The “assembly of amyloid fibrils” value (amyloid fibrils) was “blocks the assembly of amyloid fibrils” and the “disassembly of preexisting fibrils” value (amyloid fibrils) was “does not interfere”.
